Results: US20140294905A1, “ANTIMICROBIAL TEXTILES” (BACTOGEN BIYOTEKNOLOJIK URUNLER SANAYI VE TICARET ANONIM …, priority 2011, published 2014)

Assays:
Candida albicans [1] = assay: Modified disc diffusion method; details: 36±1° C. for 48 hours
Procedure: (§3) A 100 μl solution containing 10^8 cfu/ml bacteria, 10^6 cfu/ml yeast and 10^4 spores/ml mould is prepared from new cultures and is inoculated respectively onto triptonic soy agar (TSA), Sabouraud Dextrose Agar (SDA) and Potato Dextrose Agar (PDA) through the use of diffusion method. 20 μl of sterile water is dropped onto empty discs and the discs are then dipped into sodium borate in powder format. Discs dipped into sodium borate are then placed on planted petri dishes. As a negative control, blank discs onto which 20 μl of sterile water is dropped are used. As a positive control, Ofloxacin (10 μg/disc) and nystatin (30 μg/disc) are respectively used for bacteria and fungi.
(§4) Planted petri dishes on which modified disc diffusion method is applied are kept at 36±1° C. for 24 hours for bacteria, at 36±1° C. for 48 hours for yeasts and at 25±1° C. for 72 hours for moulds. Antimicrobial activity inhibition zone (a zone where no microorganisms grow) is measured and evaluated for microorganisms tested with modified disc diffusion method. All tests are repeated at least twice.

Botrytis cinerea [2] = assay: Modified disc diffusion method; details: 25±1° C. for 72 hours
Procedure: as §3, §4

Aspergillus niger [3] = assay: Modified disc diffusion method; details: 25±1° C. for 72 hours
Procedure: as §3, §4

Candida albicans [4] = assay: Antimicrobial tests of textiles on planted petri dishes; assay type: cell-based; design: key: + indicates that (antimicrobial) inhibition zones are observed around the textiles added with sodium borate (FIG. 1-8); details: in vitro, 37° C. for 48 hours
Procedure: (§1) Sodium borate-added textiles prepared with three different techniques and the unprocessed textiles to which sodium borate is not added are placed on the petri dishes planted with microorganisms and their antimicrobial efficiency is tested.
(§2) Sodium borate-added textiles fixed with methanol, textiles sprayed with sodium borate dissolved in pH-enhanced water and textiles dyed with water-based textile dye the base of which is prepared by the addition of sodium borate are tested. As a negative control, any possible impact which inhibits the growing of microorganisms on textiles which are not processed is observed. […] Tested antimicrobial activity is evaluated upon the measuring of the inhibition zone of the microorganisms handled. All tests are repeated at least twice.

Penicillium vinaceum [5] = assay: as above; assay type: cell-based; design: key: + indicates that (antimicrobial) inhibition zones are observed around the textiles added with sodium borate (FIG. 1-8); details: in vitro, room temperature for 72 hours
Procedure: as §1, §2

Fusarium oxysporum [6] = assay: as above; assay type: cell-based; design: key: + indicates that (antimicrobial) inhibition zones are observed around the textiles added with sodium borate (FIG. 1-8); details: in vitro, room temperature for 72 hours
Procedure: as §1, §2

Aspergillus niger [7] = assay: as above; assay type: cell-based; design: key: + indicates that (antimicrobial) inhibition zones are observed around the textiles added with sodium borate (FIG. 1-8); details: in vitro, room temperature for 72 hours
Procedure: as §1, §2

Candida glabrata [8] = assay: as above; assay type: cell-based; design: key: + indicates that (antimicrobial) inhibition zones are observed around the textiles added with sodium borate (FIG. 1-8); details: in vitro, 37° C. for 48 hours
Procedure: as §1, §2

Botrytis cinerea [9] = assay: as above; assay type: cell-based; design: key: + indicates that (antimicrobial) inhibition zones are observed around the textiles added with sodium borate (FIG. 1-8); details: in vitro, room temperature for 72 hours
Procedure: as §1, §2

Penicillium expansum [10] = assay: as above; assay type: cell-based; design: key: + indicates that (antimicrobial) inhibition zones are observed around the textiles added with sodium borate (FIG. 1-8); details: in vitro, room temperature for 72 hours
Procedure: as §1, §2

Candida glabrata [11] = assay: Modified disc diffusion method; details: 36±1° C. for 48 hours
Procedure: as §3, §4

Penicillium vinaceum [12] = assay: Modified disc diffusion method; details: 25±1° C. for 72 hours
Procedure: as §3, §4

Penicillium expansum [13] = assay: Modified disc diffusion method; details: 25±1° C. for 72 hours
Procedure: as §3, §4

Fusarium oxysporum [14] = assay: Modified disc diffusion method; details: 25±1° C. for 72 hours
Procedure: as §3, §4

Staphylococcus aureus [15] = assay: Modified disc diffusion method; details: 36±1° C. for 24 hours
Procedure: as §3, §4

Pseudomonas aeruginosa [16] = assay: Modified disc diffusion method; details: 36±1° C. for 24 hours
Procedure: as §3, §4

Escherichia coli [17] = assay: Modified disc diffusion method; details: 36±1° C. for 24 hours
Procedure: as §3, §4

Pseudomonas aeruginosa [18] = assay: Antimicrobial tests of textiles on planted petri dishes; assay type: cell-based; design: key: + indicates that (antimicrobial) inhibition zones are observed around the textiles added with sodium borate (FIG. 1-8); details: in vitro, 37° C. for 24 hours
Procedure: as §1, §2

Staphylococcus aureus [19] = assay: as above; assay type: cell-based; design: key: + indicates that (antimicrobial) inhibition zones are observed around the textiles added with sodium borate (FIG. 1-8); details: in vitro, 37° C. for 24 hours
Procedure: as §1, §2

Escherichia coli [20] = assay: as above; assay type: cell-based; design: key: + indicates that (antimicrobial) inhibition zones are observed around the textiles added with sodium borate (FIG. 1-8); details: in vitro, 37° C. for 24 hours
Procedure: as §1, §2

MRSA = assay: as above; assay type: cell-based; design: key: + indicates that (antimicrobial) inhibition zones are observed around the textiles added with sodium borate (FIG. 1-8); details: in vitro, 37° C. for 24 hours
Procedure: as §1, §2

C[C@@H]1[C@H](O)[C@@H](C)/C=C/C=C/CC/C=C/C=C/C=C/C=C/C(O[C@H]2O[C@H](C)[C@@H](O)[C@H](N)[C@@H]2O)CC2O[C@](O)(CC(O)C(O)CCC(O)CC(O)CC(O)CC(=O)O[C@H]1C)CC(O)C2C(=O)O (stereo partly shown) [Nystatin]
+: Antimicrobial effect (inhibition zone) (Candida albicans [1]) | Antimicrobial effect (inhibition zone) (Botrytis cinerea [2]) | Antimicrobial effect (inhibition zone) (Aspergillus niger [3]) | Antimicrobial test result (inhibition zone around textile) (Candida albicans [4]) | Antimicrobial test result (inhibition zone around textile) (Penicillium vinaceum [5]) | Antimicrobial test result (inhibition zone around textile) (Fusarium oxysporum [6]) | Antimicrobial test result (inhibition zone around textile) (Aspergillus niger [7]) | Antimicrobial test result (inhibition zone around textile) (Candida glabrata [8]) | Antimicrobial test result (inhibition zone around textile) (Botrytis cinerea [9]) | Antimicrobial test result (inhibition zone around textile) (Penicillium expansum [10]) | Antimicrobial effect (inhibition zone) (Candida glabrata [11]) | Antimicrobial effect (inhibition zone) (Penicillium vinaceum [12]) | Antimicrobial effect (inhibition zone) (Penicillium expansum [13]) | Antimicrobial effect (inhibition zone) (Fusarium oxysporum [14])

CC1COc2c(N3CCN(C)CC3)c(F)cc3c(=O)c(C(=O)O)cn1c23 (stereo not shown) [Ofloxacin]
+: Antimicrobial effect (inhibition zone) (Staphylococcus aureus [15]) | Antimicrobial effect (inhibition zone) (Pseudomonas aeruginosa [16]) | Antimicrobial effect (inhibition zone) (Escherichia coli [17]) | Antimicrobial test result (inhibition zone around textile) (Pseudomonas aeruginosa [18]) | Antimicrobial test result (inhibition zone around textile) (Staphylococcus aureus [19]) | Antimicrobial test result (inhibition zone around textile) (Escherichia coli [20]) | Antimicrobial test result (inhibition zone around textile) (MRSA)

O.O.O.O.O.O.O.O.O.O.[Na+].[Na+].[O-]B1OB2OB([O-])OB(O1)O2 [Sodium Borate, sodium borate]
+: Antimicrobial effect (inhibition zone) (Staphylococcus aureus [15]) | Antimicrobial effect (inhibition zone) (Candida albicans [1]) | Antimicrobial effect (inhibition zone) (Botrytis cinerea [2]) | Antimicrobial effect (inhibition zone) (Pseudomonas aeruginosa [16]) | Antimicrobial effect (inhibition zone) (Escherichia coli [17]) | Antimicrobial effect (inhibition zone) (Aspergillus niger [3]) | Antimicrobial effect (inhibition zone) (Candida glabrata [11]) | Antimicrobial effect (inhibition zone) (Penicillium vinaceum [12]) | Antimicrobial effect (inhibition zone) (Penicillium expansum [13]) | Antimicrobial effect (inhibition zone) (Fusarium oxysporum [14])
